# Experimental data as given in the supplement of paper PMC10307832.
# Experiments:
# Assay in all cases: relative viability (nuclei count vs DMSO), 5 days (fraction); higher = more cells survive
# [1] = compound: C=CC(=O)Nc1cc(-n2c(=O)ccc3cnc4ccc(-c5ccc(NS(C)(=O)=O)cc5)cc4c32)ccc1C [BMX-IN-1] + CC(=O)Nc1cccc(-n2c(=O)n(C3CC3)c(=O)c3c(Nc4ccc(I)cc4F)n(C)c(=O)c(C)c32)c1 [Trametinib] (partner 0.02 µM)
# In short: (§1)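 A single step with final 0.05% Triton X-100, 1% formaldehyde and 1 ug/ml Hoechst fixed the cells and stained nuclei 5 days after treatment. Lung cancer cell lines in 1536-well plates had been treated by pin tool the day after seeding with one drug alone or a fixed anchor-drug dose plus five library-drug doses (not always all listed) in √10 steps, and nuclei were counted on 4× images. Relative viability is the ratio of nuclei in treated wells to nuclei in vehicle wells, taken as the median of duplicate plates.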
# [2] = compound: C=CC(=O)N1CCC[C@@H](n2nc(-c3ccc(Oc4ccccc4)cc3)c3c(N)ncnc32)C1 [Ibrutinib] + Nc1ncn([C@H]2C[C@H](O)[C@@H](CO)O2)c(=O)n1 [Decitabine] (partner 2 µM)
# In short: as §1
# [3] = compound: C=CC(=O)N1CCC[C@@H](n2nc(-c3ccc(Oc4ccccc4)cc3)c3c(N)ncnc32)C1 [Ibrutinib] + C[C@]1(O)C[C@@H](c2nc(-c3ccc4ccc(-c5ccccc5)nc4c3)c3c(N)nccn32)C1 [Linsitinib] (partner 1 µM)
# In short: as §1
# [4] = compound: C=CCc1cccc(/C=N/NC(=O)CN2CCN(Cc3ccccc3)CC2)c1O [PAC-1] + CS(=O)(=O)CCNCc1ccc(-c2ccc3ncnc(Nc4ccc(OCc5cccc(F)c5)c(Cl)c4)c3c2)o1 [Lapatinib] (partner 2 µM)
# In short: as §1
Cell Line,relative viability ([1]; first compound 0.02 µM),relative viability ([1]; first compound 0.2 µM),relative viability ([1]; first compound 0.6325 µM),relative viability ([1]; first compound 2 µM),relative viability ([2]; first compound 0.005 µM),relative viability ([2]; first compound 0.01581 µM),relative viability ([2]; first compound 0.5 µM),relative viability ([3]; first compound 0.005 µM),relative viability ([3]; first compound 0.01581 µM),relative viability ([3]; first compound 0.05 µM),relative viability ([3]; first compound 0.5 µM),relative viability ([4]; first compound 0.02 µM),relative viability ([4]; first compound 0.06325 µM),relative viability ([4]; first compound 0.2 µM),relative viability ([4]; first compound 2 µM),relative viability ([3]; first compound 0.1581 µM),relative viability ([2]; first compound 0.05 µM),relative viability ([2]; first compound 0.1581 µM)
NCI-H2405,0.688,0.642,0.659,0.591,0.622,0.715,0.682,0.849,0.801,0.929,0.869,1.03,1.17,1.14,1.24,,,
EBC-1,,,,,,,,0.848,1,0.825,0.952,0.184,0.218,0.23,0.225,0.864,,
NCI-H1734,0.732,0.751,0.735,0.7,0.548,0.511,0.47,0.801,0.887,0.885,0.745,1.12,0.987,1.04,1.01,0.885,0.541,0.455
NCI-H2087,0.204,0.174,0.214,0.218,0.238,0.279,0.291,1.07,1.06,,0.943,1.07,1.06,0.815,0.922,1.02,0.261,
NCI-H1563,,,,,,,,1.37,1.08,1.33,1.06,0.967,0.91,1.07,1.01,1.16,,
SW 900,1.12,0.831,0.816,0.807,0.401,0.509,0.458,,,,,,,,,,0.412,0.432
A549,,,,,0.249,0.243,0.186,,0.58,0.519,0.377,0.935,0.804,1,1.06,0.505,0.311,0.225
NCI-H1793,0.544,0.454,0.505,0.454,0.478,0.485,0.366,,0.66,0.652,0.509,0.48,0.753,0.62,0.652,0.797,0.432,0.502
EKVX,0.308,0.39,0.375,0.369,0.281,0.247,0.226,0.893,0.944,1.12,0.613,0.203,0.18,0.208,0.176,1.05,0.421,0.315
NCI-H2126,0.55,0.55,0.592,0.603,0.537,0.565,0.502,,0.66,0.705,0.539,0.745,0.763,0.817,0.816,0.732,0.613,0.598
NCI-H1993,0.531,0.588,0.464,0.56,0.571,0.637,0.441,0.738,0.698,0.694,0.647,0.774,0.835,0.838,0.887,,0.579,0.554
EPLC-272H,0.27,0.257,0.311,0.318,,0.318,0.275,,1.07,1.31,0.771,,1.2,0.978,0.942,1.25,0.327,0.381
LU99A,0.515,0.548,0.548,0.572,0.857,0.796,0.874,0.504,0.51,0.497,0.521,1.11,1.05,0.918,0.977,0.54,0.947,0.937
NCI-H1299,,,,,,,,0.497,0.993,0.961,1.03,0.981,0.967,0.975,0.949,0.966,,
HCC-78,0.801,0.967,0.717,0.896,,0.824,0.702,0.555,0.489,0.432,0.33,0.753,0.822,0.657,1.05,0.485,0.677,0.543
HCC-15,0.268,0.411,0.388,0.396,0.711,0.57,0.662,0.883,0.85,0.935,0.835,0.907,0.945,0.814,0.861,0.89,0.661,0.581
201T,0.703,0.733,0.744,0.694,0.827,0.842,0.799,0.961,1.05,1.01,0.907,0.98,1.01,1.1,1.05,1.06,0.881,0.83
LCLC-103H,0.753,0.758,0.736,0.683,0.685,0.705,0.725,1.28,1.16,1.09,1.03,,,,,1.1,0.754,0.759
RERF-LC-KJ,0.967,0.897,0.867,0.909,0.599,0.654,0.728,0.903,0.804,0.818,0.778,0.857,0.817,0.864,0.87,0.824,0.561,0.693
NCI-H1650,0.576,0.539,0.682,0.611,0.41,0.379,0.444,,,,,0.749,0.875,0.675,0.668,,0.512,0.402
NCI-H1355,0.385,0.459,0.463,0.45,,0.355,0.363,,0.666,0.713,0.67,0.97,0.977,0.929,1.11,0.885,0.367,0.318
